Patent publication US12581252B2, “Substituted pyrrolo[3,4-b]pyridines as PI3K-α inhibitors” (Relay Therapeutics, Inc., priority 2020, dated 2026)

biological target: H1047R PIK3CA enzyme (Homo sapiens, UniProt P42336, H1047R); assay: ADP-Glo Biochemical PIK3CA Kinase Assay
Sequence (P42336 whole entry H1047R): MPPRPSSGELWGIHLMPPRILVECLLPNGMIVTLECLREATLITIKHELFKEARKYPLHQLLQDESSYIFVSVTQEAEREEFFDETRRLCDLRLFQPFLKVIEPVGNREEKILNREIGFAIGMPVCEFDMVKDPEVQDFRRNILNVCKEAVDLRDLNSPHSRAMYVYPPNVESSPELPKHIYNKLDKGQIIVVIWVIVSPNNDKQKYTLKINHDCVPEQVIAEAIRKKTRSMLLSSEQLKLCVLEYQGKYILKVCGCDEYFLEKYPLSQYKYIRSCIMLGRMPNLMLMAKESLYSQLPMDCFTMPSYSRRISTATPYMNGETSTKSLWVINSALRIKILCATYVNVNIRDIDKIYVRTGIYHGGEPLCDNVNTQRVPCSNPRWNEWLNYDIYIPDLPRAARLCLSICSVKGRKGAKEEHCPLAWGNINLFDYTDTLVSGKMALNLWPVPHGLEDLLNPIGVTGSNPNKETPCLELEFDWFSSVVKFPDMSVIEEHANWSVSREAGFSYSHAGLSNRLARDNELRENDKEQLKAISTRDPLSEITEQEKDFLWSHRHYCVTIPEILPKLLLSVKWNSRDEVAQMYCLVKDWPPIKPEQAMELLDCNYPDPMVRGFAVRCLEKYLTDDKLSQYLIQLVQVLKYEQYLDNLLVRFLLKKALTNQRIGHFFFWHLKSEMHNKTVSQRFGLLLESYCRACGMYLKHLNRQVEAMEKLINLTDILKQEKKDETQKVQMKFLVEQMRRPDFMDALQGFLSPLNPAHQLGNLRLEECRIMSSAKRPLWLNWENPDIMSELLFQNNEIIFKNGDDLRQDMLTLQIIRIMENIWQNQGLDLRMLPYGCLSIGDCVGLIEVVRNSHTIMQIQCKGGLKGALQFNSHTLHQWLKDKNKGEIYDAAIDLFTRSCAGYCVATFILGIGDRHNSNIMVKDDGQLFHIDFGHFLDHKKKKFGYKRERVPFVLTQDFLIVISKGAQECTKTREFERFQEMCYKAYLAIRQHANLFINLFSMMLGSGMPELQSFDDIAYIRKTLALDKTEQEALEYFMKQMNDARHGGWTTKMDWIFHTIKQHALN
Sequence (P27986 whole entry partner): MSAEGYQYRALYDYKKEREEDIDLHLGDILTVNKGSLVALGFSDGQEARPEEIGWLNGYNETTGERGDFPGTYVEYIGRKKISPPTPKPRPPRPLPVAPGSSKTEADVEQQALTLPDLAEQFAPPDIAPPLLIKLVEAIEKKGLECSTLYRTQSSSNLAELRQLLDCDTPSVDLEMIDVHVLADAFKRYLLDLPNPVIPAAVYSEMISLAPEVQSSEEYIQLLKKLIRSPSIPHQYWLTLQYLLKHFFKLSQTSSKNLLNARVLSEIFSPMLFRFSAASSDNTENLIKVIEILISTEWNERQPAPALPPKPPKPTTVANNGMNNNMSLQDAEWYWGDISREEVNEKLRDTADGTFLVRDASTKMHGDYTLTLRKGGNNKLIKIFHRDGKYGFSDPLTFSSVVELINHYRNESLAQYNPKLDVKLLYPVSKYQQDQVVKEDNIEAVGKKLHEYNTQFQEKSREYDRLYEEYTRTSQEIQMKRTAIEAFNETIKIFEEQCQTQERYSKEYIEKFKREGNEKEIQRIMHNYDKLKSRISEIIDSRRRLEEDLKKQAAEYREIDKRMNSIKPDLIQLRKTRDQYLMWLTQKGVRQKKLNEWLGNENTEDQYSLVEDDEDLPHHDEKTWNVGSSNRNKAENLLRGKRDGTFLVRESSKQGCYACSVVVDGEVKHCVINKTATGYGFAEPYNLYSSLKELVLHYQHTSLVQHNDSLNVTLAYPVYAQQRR

| Structure (SMILES) | IC50 [nM] |
| --- | --- |
| O=C1NC(c2ccccc2Cl)c2c(NC(=O)c3nsc4ccccc34)cc(-c3cn[nH]c3)nc21 (centres unmarked) [Compound I-94, N-(5-(2-Chlorophenyl)-7-oxo-2-(1H-pyrazol-4-yl)-6,7-dihydro-5H-pyrrolo[3,4-b]pyridin-4-yl)benzo[d]isothiazole-3-carboxamide] | 100 to 500 |
| N#Cc1cnccc1-c1cc(NC(=O)c2cc(F)cc(C(F)(F)F)c2)c2c(n1)C(=O)NC2c1cc(F)ccc1Cl (centres unmarked) [Compound I-549] | ≤ 100 |
| O=C(Nc1cccc2c1[C@H](C13C[C@H]4C[C@@H](C1)C[C@@H](C3)C4)NC2=O)c1cc(F)cc(C(F)(F)F)c1 (racemic) [Compound I-2075] | 1000 to 10000 |
| CC(=O)c1cc(NC(=O)c2cc(F)cc(C(F)(F)F)c2)c2c(c1)C(=O)NC2c1cc(F)ccc1C(F)F (centres unmarked) [Compound I-238] | ≤ 100 |
| CC12CC3CC(F)(C1)CC(C(=O)Nc1cc(Br)cc4c1C(c1cc(F)ccc1Cl)NC4=O)(C3)C2 (centres unmarked) [Compound I-1635] | 100 to 500 |
| O=C1N[C@@H](c2cc(F)ccc2Cl)c2c(NC(=O)N3C[C@@H](O)c4cc(F)ccc43)cc(-c3ccc(=O)n(C(F)F)c3)cc21 (single isomer, unassigned) [Compound I-2451] | 1000 to 10000 |
| O=C(Nc1cc(N2CC3(CNC3)C2)cc2c1C(c1cc(F)ccc1Cl)NC2=O)c1cc(F)cc(C(F)(F)F)c1 (centres unmarked) [Compound I-1299] | 100 to 500 |
| Cc1ccccc1C1NC(=O)c2cc(CN)cc(NC(=O)c3csc4ccccc34)c21 (centres unmarked) [Compound I-88, N-(6-(Aminomethyl)-1-oxo-3-(o-tolyl)isoindolin-4-yl)benzo[b]thiophene-3-carboxamide] | ≤ 100 |
| Cc1ccccc1C1NC(=O)c2c(C(N)=O)ncc(NC(=O)c3cc(F)cc(C(F)(F)F)c3)c21 (centres unmarked) [Compound I-265] | 100 to 500 |
| Cc1ccccc1C1NC(=O)c2cccc(NC(=O)c3cc(F)cc4cc[nH]c34)c21 (centres unmarked) [Compound I-454] | 100 to 500 |
| N#Cc1cnn(Cc2cc(NC(=O)c3cc(F)cc(C(F)(F)F)c3)c3c(c2)C(=O)NC3c2cc(F)ccc2Cl)c1 (centres unmarked) [Compound I-1588] | ≤ 100 |
| Cn1cc(-c2cc(NC(=O)c3cc(F)cc(C(F)(F)F)c3)c3c(c2)C(=O)NC3c2cc(F)ccc2Cl)ccc1=O (centres unmarked) [Compound I-648] | ≤ 100 |
| C[C@@]1(O)CN(C(=O)Nc2cc(Br)cc3c2C(c2cc(F)ccc2Cl)NC3=O)c2ccccc21 (single isomer, unassigned) [Compound I-1511] | ≤ 100 |
| CNC(=O)c1cc(NC(=O)c2cc(F)cc(C(F)(F)F)c2)c2c(c1)C(=O)NC2c1ccccc1C (centres unmarked) [Compound I-156] | ≤ 100 |
| O=C(Cn1ncc2ccccc21)Nc1cc(Br)cc2c1C(c1cc(F)ccc1Cl)NC2=O (centres unmarked) [Compound I-633] | 10000 to 100000 |
| CC(C)(O)c1cc(NC(=O)N2CCc3ccccc32)c2c(c1)C(=O)N[C@H]2c1cc(F)ccc1Cl [Compound I-713] | ≤ 100 |
| O=C(Nc1cc(-c2ccc3nnnn3c2)cc2c1[C@@H](c1cc(F)ccc1Cl)NC2=O)c1cc(F)cc(C(F)(F)F)c1 [Compound I-1452] | 1000 to 10000 |
| Cc1ccccc1C1NC(=O)c2c(C#N)ccc(NC(=O)c3csc4ccccc34)c21 (centres unmarked) [Compound I-132, N-(7-Cyano-1-oxo-3-(o-tolyl)isoindolin-4-yl)benzo[b]thiophene-3-carboxamide] | ≤ 100 |
| O=C1NC(c2cnccc2Cl)c2c(NC(=O)c3nsc4ccccc34)cccc21 (centres unmarked) [Compound I-160] | 500 to 1000 |
| O=C1N[C@H](c2cc(F)ccc2Cl)c2c(NC(=O)[C@H]3C[C@H](O)C[C@@H](C(F)(F)F)C3)cccc21 (single isomer, unassigned) [Compound I-2178] | 10000 to 100000 |
| O=C(Nc1ccccc1Cl)Nc1ccnc2c1C(c1ccccc1Cl)NC2=O (centres unmarked) [Compound I-296] | 1000 to 10000 |

| Structure (SMILES) | IC50 [nM] |
| --- | --- |
| O=C1N[C@H](c2cc(F)ccc2Cl)c2c(NC(=O)N3C[C@H](CO)[C@@H](C(F)(F)F)C3)cccc21 (single isomer, unassigned) [Compound I-2278] | 10000 to 100000 |
| O=C(Nc1cc(-c2ccn3nc(Cl)nc3c2)cc2c1[C@H](c1cc(F)ccc1Cl)NC2=O)c1cc(F)cc(C(F)(F)F)c1 [Compound I-1697] | ≤ 100 |
| O=C(Nc1cc(-c2ccc3ncnn3c2)cc2c1C(c1cc(F)ccc1Cl)NC2=O)C(=O)c1ccccc1 (centres unmarked) [Compound I-1730] | 1000 to 10000 |
| O=C(Nc1cccc2c1C(C1CCCCC13CC3)NC2=O)c1cc(F)cc(C(F)(F)F)c1 (racemic) [Compound I-1912] | 1000 to 10000 |
| O=C(Nc1cc(-c2ccnn2C[C@@H]2CCOC2)cc2c1C(c1cc(F)ccc1Cl)NC2=O)c1cc(F)cc(C(F)(F)F)c1 (single isomer, unassigned) [Compound I-1407] | ≤ 100 |
| CCC[C@]1(O)CN(C(=O)Nc2cccc3c2[C@@H](c2cc(F)ccc2Cl)NC3=O)c2ccc(F)cc21 (single isomer, unassigned) [Compound I-2456] | 1000 to 10000 |
| CC(=O)N1CCCC(C2NC(=O)c3cccc(NC(=O)c4cc(F)cc(C(F)(F)F)c4)c32)C1 (racemic) [Compound I-1771] | 10000 to 100000 |
| Cc1cc(F)cc(C(=O)Nc2cc(Br)cc3c2C(c2cc(F)ccc2Cl)NC3=O)c1 (centres unmarked) [Compound I-951] | 1000 to 10000 |
| O=C(Nc1cc(Br)cc2c1C(c1cc(F)ccc1Cl)NC2=O)c1ccc(OC(F)(F)F)c(F)c1 (centres unmarked) [Compound I-1313] | 1000 to 10000 |
| O=C(Nc1cc(Br)cc2c1C(c1cc(F)ccc1Cl)NC2=O)c1cnn(-c2ccccc2)c1 (centres unmarked) [Compound I-561] | 10000 to 100000 |
| O=C(Nc1cc(NCC(F)F)nc2c1C(c1cc(F)ccc1Cl)NC2=O)c1cc(F)cc(C(F)(F)F)c1 (centres unmarked) [Compound I-338] | ≤ 100 |
| O=C(COc1ccccc1)Nc1cc(-c2ccc3ncnn3c2)cc2c1C(c1cc(F)ccc1Cl)NC2=O (centres unmarked) [Compound I-1688] | 10000 to 100000 |
| O=C(Nc1cc(Br)cc2c1[C@@H](c1cc(F)cc(F)c1Cl)NC2=O)c1cc(F)cc(C(F)(F)F)c1 [Compound I-806] | 500 to 1000 |
| O=C(Nc1cc(C2(O)CC2)cc2c1C(c1cc(F)ccc1Cl)NC2=O)c1cc(F)cc(C(F)(F)F)c1 (centres unmarked) [Compound I-374, N-[3-(2-chloro-5-fluorophenyl)-6-(1-hydroxycyclopropyl)-1-oxo-2,3-dihydro-1H-isoindol-4-yl]-3-fluoro-5-(trifluoromethyl)benzamide] | ≤ 100 |
| Cc1ccccc1C1NC(=O)c2cccc(NC(=O)c3cccc4c3CCCO4)c21 (centres unmarked) [Compound I-11] | 10000 to 100000 |
| O=C1NC(c2cc(F)ccc2Cl)c2c(NC(=O)c3cc(F)cc4c(Cl)n[nH]c34)cc(Br)cc21 (centres unmarked) [Compound I-1686] | 1000 to 10000 |
| Cc1ccccc1C1NC(=O)c2c(C(=O)NCC(F)F)ccc(NC(=O)c3nsc4ccccc34)c21 (centres unmarked) [Compound I-276] | ≤ 100 |
| O=C(Nc1cc(O)cc2c1C(c1cc(F)ccc1Cl)NC2=O)c1cc(F)cc(Cl)c1 (centres unmarked) [Compound I-383] | ≤ 100 |
| O=C(Nc1cc(NC2COC2)cc2c1C(c1cc(F)ccc1Cl)NC2=O)c1cc(F)cc(C(F)(F)F)c1 (centres unmarked) [Compound I-613] | ≤ 100 |
| C[C@H](CCC(F)(F)F)C(=O)Nc1cccc2c1[C@H](c1cc(F)ccc1Cl)NC2=O [Compound I-2139] | 10000 to 100000 |
| O=C1N[C@@H](c2cc(F)ccc2Cl)c2c1cc(-c1ccc3ncnn3c1)cc2S(=O)(=O)Cc1ccccc1 (single isomer, unassigned) [Compound I-1906] | 10000 to 100000 |

| Structure (SMILES) | IC50 [nM] |
| --- | --- |
| CCC(CC(=O)Nc1cccc2c1C(c1cc(F)ccc1Cl)NC2=O)C(C)C(F)(F)F (centres unmarked) [Compound I-2193] | 1000 to 10000 |
| O=C(Nc1cc(-c2ccc3ncccc3c2)cc2c1[C@@H](c1cc(F)ccc1Cl)NC2=O)c1cc(F)cc(C(F)(F)F)c1 [Compound I-893] | 1000 to 10000 |
| Cc1ccccc1C1NC(=O)c2cccc(N)c21 (centres unmarked) [Compound I-62] | 10000 to 100000 |
| CC(C)(C)CCC1NC(=O)c2cccc(NC(=O)c3cc(F)cc(C(F)(F)F)c3)c21 (centres unmarked) [Compound I-2196] | 1000 to 10000 |
| N#Cc1cc(NC(=O)c2cc(F)cc(C(F)(F)F)c2)c2c(c1)C(=O)N[C@@H]2c1cc(F)ccc1Cl (single isomer, unassigned) [Compound I-770] | ≤ 100 |
| N#Cc1cnc2ccc(-c3cc(NC(=O)c4cc(F)cc(C(F)(F)F)c4)c4c(c3)C(=O)NC4c3cc(F)ccc3Cl)cn12 (centres unmarked) [Compound I-1410] | ≤ 100 |
| O=C(Nc1cccc2c1[C@@H](CC1CCCC1)NC2=O)c1cc(F)cc(C(F)(F)F)c1 [Compound I-2154] | 1000 to 10000 |
| O=C(NCc1ccccc1)c1cc(Br)cc2c1C(c1cc(F)ccc1Cl)NC2=O (centres unmarked) [Compound I-1979] | 10000 to 100000 |
| O=C1NC(c2cc(F)ccc2Cl)c2c1cccc2N1Cc2ccccc2CC1=O (centres unmarked) [Compound I-1746] | 10000 to 100000 |
| Nc1ccc(COc2cc(NC(=O)c3cc(F)cc(C(F)(F)F)c3)c3c(c2)C(=O)NC3c2cc(F)ccc2Cl)cn1 (centres unmarked) [Compound I-1736] | ≤ 100 |
| O=C1N[C@@H](c2cc(F)ccc2Cl)c2c(NC(=O)[C@H]3CC[C@@H](C(F)(F)F)C3)cccc21 [Compound I-2085] | 1000 to 10000 |
| O=C(Nc1cccc2c(=O)[nH]n(-c3cccc(Cl)c3)c12)c1cc(F)cc(C(F)(F)F)c1 [Compound I-950] | 1000 to 10000 |
| Cc1c(F)cccc1C1NC(=O)c2cc(Br)cc(NC(=O)c3cc(F)cc(C(F)(F)F)c3)c21 (centres unmarked) [Compound I-751] | 100 to 500 |
| C[C@@H]([C@@H]1C[C@H](O)CN1C(=O)Nc1cccc2c1[C@H](c1cc(F)ccc1Cl)NC2=O)C(F)(F)F (single isomer, unassigned) [Compound I-2393] | 500 to 1000 |
| O=C(CCc1ccccc1C(F)(F)F)Nc1cc(Br)cc2c1C(c1cc(F)ccc1Cl)NC2=O (centres unmarked) [Compound I-600] | 1000 to 10000 |
| N#Cc1cccc([S+]([O-])Cc2cc(NC(=O)c3cc(F)cc(C(F)(F)F)c3)c3c(c2)C(=O)NC3c2cc(F)ccc2Cl)c1 (centres unmarked) [Compound I-1487] | ≤ 100 |
| O=C(Nc1cc(-c2ccc(=O)n(C3CC3)c2)cc2c1[C@H](c1cc(F)ccc1Cl)NC2=O)c1cc(F)cc(C(F)(F)F)c1 [Compound I-745] | ≤ 100 |
| O=C1NC(c2cc(F)ccc2Cl)c2c(NC(=O)N3CCOCC(F)(F)C3)cc(Br)cc21 (centres unmarked) [Compound I-698] | 10000 to 100000 |
| COc1cc(NC(=O)c2cc(F)cc(C(F)(F)F)c2)c2c(c1)C(=O)NC2c1cc(F)ccc1Cl (centres unmarked) [Compound I-773] | ≤ 100 |
| O=C1N[C@@H](c2cc(F)ccc2Cl)c2c(NC(=O)N3C[C@@H](O)c4cc(F)ccc43)cc(-n3ccnn3)cc21 (single isomer, unassigned) [Compound I-2370] | 500 to 1000 |
